From patent US11957680B2, “Pyruvate kinase activators for use in treating blood disorders” (Agios Pharmaceuticals, Inc., priority 2017, dated 2024)

What was measured:
PKR K410E = PKR K410E (Homo sapiens, UniProt P30613, K410E); experiment: PKR mutant assay (K410E), AC50, LDH/NADH-coupled, absorbance at 340 nm; format: biochemical; conditions: Table 2; enzyme assay
Protocol: (§1) Example 11. PKR Mutant Assay
(§2) PKR or PKR mutant enzyme solution was diluted into a reaction mix, which contains 1× buffer (100 mM KCl, 50 mM Tris pH 7.5, 5 mM MgCl2) as well as PEP (conc depends on enzyme), 180 μM NADH, 0.5 units LDH, 1 mM DTT, 0.03% BSA; final assay concentrations after 1.11 fold dilution are indicated.
(§3) 2 μL of test compound was added into wells first, and then 180 μL reaction mix was added.
(§4) Reactions mixture with test compound was assembled except for ADP, and plates were stored for 60 minutes at room temperature.
(§5) 20 uL ADP was added to start reaction at room temperature and reaction progress was measured as changes in absorbance at 340 nm wavelength at room temperature.
(§6) Test Compound Preparation:
(§7) Test compound stock was made at 100× concentration in 100% DMSO (10 mM)
(§8) 1 to 3 dilutions were made for 11 points (i.e. 50 μl of first concentration added to 100 μl 100% DMSO to yield 3.33 mM, 50 μl of this added to 100 μl DMSO to yield 1.11 mM, and so forth) • 1 to 100 dilution into assay (2 μl in 200 μl) yielded starting concentration of 100 μM, decreasing 3 fold for 11 points.
(§9) Assay Buffer: 100 mM KCl, 50 mM Tris 7.5, 5 mM MgCl2, 1 mM DTT, 0.03% BSA
(§10) Reaction Mixture: PKR mutant enzyme: 40-400 ng/well; ADP: 0.2-1.65 mM; PEP: 0.1-0.5 mM; NADH: 180 μM; LDH: 0.5 units (Sigma #59023); DTT: 1 mM; BSA: 0.03%.

PKR R510Q = PKR R510Q (Homo sapiens, UniProt P30613, R510Q); experiment: PKR mutant assay (R510Q), AC50, LDH/NADH-coupled, absorbance at 340 nm; format: biochemical; conditions: Table 2, enzyme assay; for AC50: read-out: PK R510Q AC50
Protocol: as §1, §2, §3, §4, §5, §6, §7, §8, §9, §10

wild type PKR [1] = biological target: T1, wild type PKR (Homo sapiens, UniProt P30613); experiment: PKR (wild type) enzyme AC50 assay, LDH/NADH-coupled, absorbance at 340 nm; format: biochemical; conditions: Table 2, enzyme assay; for AC50: read-out: PKR WT AC50
Protocol: as §1, §2, §3, §4, §5, §6, §7, §8, §9, §10

wild type PKR [2] = biological target: T1, wild type PKR; experiment: Cell based ATP assay in purified red blood cells (Cell-Titer-Glo); design: endogenous in cells; host or cells: purified red blood cells from healthy volunteers; conditions: Table 2; RBCs, overnight at 37° C., ATP levels
Protocol: Example 16. Red Blood Cell (RBC) Purification
Fresh blood drawn from healthy volunteers into K2EDTA tubes was collected. Whole blood was pelleted by spinning at 500 g for 10 minutes. Cut transfusion bag port off of Purecell leukocyte reduction neofilter (Fisher NC0267633) one (1) inch above filter. Attach a 10 ml syringe barrel to the remaining cut tubing attached to neofilter. The plasma layer was removed from the pellet of the whole blood and the pellet was resuspended in 2× volume of phosphate buffered saline (PBS). Transfer 9 ml re-suspended blood cell pellet to prepared 10 ml syringe that is attached to the neofilter. Allow whole blood to gravity flow through filter until all fluid runs through upper tubing into filter disc. Add plunger to the syringe, remove syringe from clamp and invert the filter, then plunge air through the syringe filter system. Using a new 5 ml syringe, remove filtered RBCs from the bag by the syringe port and transfer purified RBCs to a 5 ml snap cap tube that has been incubated on ice. Spin 5 ml snap cap tube at 500 g for 10 minutes at 15 C, aspirate supernatant and resuspend in AGAM (1×PBS, 1% glucose, 170 mg/L adenine, 5.25 g/L mannitol) at a density of 4×10^9 cells/mL.
Example 17. Cell Based ATP Assay
For cell based ATP assays, the compound as described herein was prepared in 100% DMSO as a 10 mM stock. Serial dilutions (1:4) were performed in 96-well V-bottom storage plate and then added 1:100 to 96-well V-bottom plates containing AGAM. RBCs were diluted in AGAM media to a density of 1×10^7 cells/mL before added 90 μL/well to black clear bottom assay plates (final compound concentration at 0.1% DMSO concentration). Assay plates were sealed using aluminum foil seals and incubated overnight at 37° C. in a humidified chamber. ATP levels were read out using Cell-Titer-Glo (Promega).

Sequence of PKR K410E (P30613 whole entry K410E): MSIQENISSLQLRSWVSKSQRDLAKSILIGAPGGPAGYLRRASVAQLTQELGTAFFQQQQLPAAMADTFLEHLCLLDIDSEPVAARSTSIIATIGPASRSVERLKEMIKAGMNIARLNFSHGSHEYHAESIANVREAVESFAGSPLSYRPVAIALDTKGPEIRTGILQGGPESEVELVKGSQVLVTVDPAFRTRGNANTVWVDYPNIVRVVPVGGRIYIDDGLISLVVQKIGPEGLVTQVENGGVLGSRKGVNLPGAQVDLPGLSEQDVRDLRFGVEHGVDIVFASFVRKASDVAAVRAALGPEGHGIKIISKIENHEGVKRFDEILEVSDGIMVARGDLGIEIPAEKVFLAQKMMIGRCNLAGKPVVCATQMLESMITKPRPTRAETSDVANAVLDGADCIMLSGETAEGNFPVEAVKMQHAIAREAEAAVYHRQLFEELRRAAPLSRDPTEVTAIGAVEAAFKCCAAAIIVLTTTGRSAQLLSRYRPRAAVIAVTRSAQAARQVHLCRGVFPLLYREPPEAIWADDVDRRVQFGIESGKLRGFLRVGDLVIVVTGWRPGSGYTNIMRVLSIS
Sequence of PKR R510Q (P30613 whole entry R510Q): as the sequence (P30613 whole entry K410E) above, with E410K, R510Q counted along it
T1 sequence (P30613 whole entry): as the sequence (P30613 whole entry K410E) above, with E410K counted along it

Row | Structure (SMILES) | AC50 (PKR K410E) [nM] | AC50 (PKR R510Q) [nM] | AC50 (wild type PKR [1]) [nM] | AC50 (wild type PKR [2]) [nM] | Cell based ATP assay AC50 (wild type PKR [2]) | PKR WT AC50 (wild type PKR [1]) | PK R510Q AC50 (PKR R510Q)
1 | COc1cccc(Cn2ncc3c4sc(Cc5ccc(C(F)(F)F)cc5)nc4n(C)c3c2=O)c1 [Compound 41] | < 300 | < 300 | < 300 | ≤ 1000 |  |  | 
2 | Cc1nc2c(s1)c1cnn(Cc3c[nH]cn3)c(=O)c1n2C [Compound 42] | > 800 | > 800 | > 800 | > 1000 |  |  | 
3 | COC(=O)c1nc2c(s1)c1cnn(Cc3cccc(OC)c3)c(=O)c1n2C [Compound 43] | > 800 | 301 to 800 | > 800 |  | No Fit |  | 
4 | Cc1nc2c(s1)c1cnn(Cc3ccc(CO)cc3)c(=O)c1n2C [Compound 44] | > 800 | > 800 | > 800 | > 1000 |  |  | 
5 | Cc1nc2c(s1)c1cnn(Cc3cccc(CO)c3)c(=O)c1n2C [Compound 45] | < 300 | < 300 | < 300 | ≤ 1000 |  |  | 
6 | Cc1nc2c(s1)c1cnn(CCCO)c(=O)c1n2C [Compound 46] | > 800 | > 800 | > 800 | > 1000 |  |  | 
7 | Cc1nc2c(s1)c1cnn(Cc3cccc([N+](=O)[O-])c3)c(=O)c1n2C [Compound 47] | > 800 | > 800 | > 800 |  | No Fit |  | 
8 | Cc1nc2c(s1)c1cnn(Cc3ccc([N+](=O)[O-])cc3)c(=O)c1n2C [Compound 48] | > 800 | > 800 |  |  | No Fit | No Fit | 
9 | Cc1nc2c(s1)c1cnn(Cc3ccc(N)cc3)c(=O)c1n2C [Compound 49] | > 800 | > 800 | > 800 | > 1000 |  |  | 
10 | COc1cccc(Cn2ncc3c4sc(CC5CCCCC5)nc4n(C)c3c2=O)c1 [Compound 50] | > 800 | > 800 | > 800 |  | No Fit |  | 
11 | COc1cccc(Cn2ncc3c4sc(CO)nc4n(C)c3c2=O)c1 [Compound 51] | < 300 | < 300 | < 300 | ≤ 1000 |  |  | 
12 | COc1cccc(Cn2ncc3c4sc(C(C)O)nc4n(C)c3c2=O)c1 (stereo not drawn) [Compound 52] | < 300 | < 300 | < 300 | ≤ 1000 |  |  | 
13 | COc1cccc(Cn2ncc3c4sc(C(F)(F)F)nc4n(C)c3c2=O)c1 [Compound 53] | < 300 | < 300 | < 300 | > 1000 |  |  | 
14 | Cc1nc2c(s1)c1cnn(CCOCCO)c(=O)c1n2C [Compound 54] | > 800 |  | > 800 |  | No Fit |  | No Fit
15 | COc1cccc(Cn2ncc3c4sc(C(=O)c5cccc(O)c5)nc4n(C)c3c2=O)c1 [Compound 55] | > 800 | 301 to 800 | 301 to 800 | > 1000 |  |  | 
16 | CC(=O)c1cccc(Cn2ncc3c4sc(C)nc4n(C)c3c2=O)c1 [Compound 56] | < 300 | < 300 | 301 to 800 | > 1000 |  |  | 
17 | Cc1nc2c(s1)c1cnn(Cc3cccc(C(C)N)c3)c(=O)c1n2C (stereo not drawn) [Compound 57] | < 300 | < 300 | < 300 | ≤ 1000 |  |  | 
18 | Cc1nc2c(s1)c1cnn(Cc3cccc(CN)c3)c(=O)c1n2C [Compound 58] | < 300 | < 300 | < 300 | > 1000 |  |  | 
19 | COc1cccc(Cn2ncc3c4sc(Cc5ccc(F)cc5)nc4n(C)c3c2=O)c1 [Compound 59] | < 300 | < 300 | < 300 | ≤ 1000 |  |  | 
20 | Cc1nc2c(s1)c1cnn(Cc3ccc4cc[nH]c4c3)c(=O)c1n2C [Compound 60] | < 300 | < 300 | < 300 | ≤ 1000 |  |  | 
21 | Cc1nc2c(s1)c1cnn(Cc3ccc4[nH]c(=O)[nH]c4c3)c(=O)c1n2C [Compound 61] | > 800 | > 800 | > 800 |  | No Fit |  | 

Now from value to compound:

Row | AC50 (PKR K410E) [nM] | AC50 (PKR R510Q) [nM] | AC50 (wild type PKR [1]) [nM] | AC50 (wild type PKR [2]) [nM] | Cell based ATP assay AC50 (wild type PKR [2]) | PKR WT AC50 (wild type PKR [1]) | PK R510Q AC50 (PKR R510Q) | Structure (SMILES)
22 | < 300 | < 300 | < 300 | ≤ 1000 |  |  |  | COc1cccc(Cn2ncc3c4sc(C(C)=O)nc4n(C)c3c2=O)c1 [Compound 62]
23 | < 300 | < 300 | < 300 | > 1000 |  |  |  | COc1cccc(Cn2ncc3c4sc(C(C)(C)O)nc4n(C)c3c2=O)c1 [Compound 63]
24 | < 300 | < 300 | < 300 | ≤ 1000 |  |  |  | COc1cccc(Cn2ncc3c4sc(Cc5ccc(C#N)cc5)nc4n(C)c3c2=O)c1 [Compound 64]
25 | 301 to 800 | 301 to 800 | > 800 | > 1000 |  |  |  | Cc1nc2c(s1)c1cnn(Cc3cccc4cn[nH]c34)c(=O)c1n2C [Compound 65]
26 | > 800 |  | > 800 |  | No Fit |  | No Fit | CCOC(=O)Cn1ncc2c3sc(C)nc3n(C)c2c1=O [Compound 66]
27 | > 800 |  | > 800 |  | No Fit |  | No Fit | Cc1nc2c(s1)c1cnn(CCO)c(=O)c1n2C [Compound 67]
28 | < 300 | < 300 | < 300 | ≤ 1000 |  |  |  | Cc1nc2c(s1)c1cnn(Cc3cc[nH]n3)c(=O)c1n2C [Compound 68]
29 | > 800 | 301 to 800 | > 800 | > 1000 |  |  |  | CNc1ccc(Cn2ncc3c4sc(C)nc4n(C)c3c2=O)cc1 [Compound 69]
30 | < 300 | < 300 | < 300 | ≤ 1000 |  |  |  | CNc1cccc(Cn2ncc3c4sc(C)nc4n(C)c3c2=O)c1 [Compound 70]
31 | 301 to 800 | 301 to 800 | 301 to 800 | ≤ 1000 |  |  |  | Cn1c2nc([S+](C)[O-])sc2c2cnn(Cc3cccc4[nH]ncc34)c(=O)c21 (stereo not drawn) [Compound 71]
32 | > 800 | > 800 | > 800 | > 1000 |  |  |  | Cc1nc2c(s1)c1cnn(Cc3cn[nH]c3)c(=O)c1n2C [Compound 72]
33 | 301 to 800 | 301 to 800 | > 800 | > 1000 |  |  |  | Cc1nc2c(s1)c1cnn(Cc3ccc4[nH]cnc4c3)c(=O)c1n2C [Compound 73]
34 | < 300 | < 300 | < 300 | ≤ 1000 |  |  |  | Cc1nc2c(s1)c1cnn(Cc3cccc(N)n3)c(=O)c1n2C [Compound 74]
35 | > 800 |  | > 800 | ≤ 1000 |  |  | No Fit | Cn1c2nc([S+](C)[O-])sc2c2cnn(Cc3ccc(C#N)cc3)c(=O)c21 (stereo not drawn) [Compound 75]
36 | < 300 | < 300 | > 800 | ≤ 1000 |  |  |  | Cc1nc2c(s1)c1cnn(Cc3cccc4c3cnn4C)c(=O)c1n2C [Compound 76]
37 | < 300 | < 300 | < 300 | ≤ 1000 |  |  |  | Cn1c2nc(Cc3ccc(O)cc3)sc2c2cnn(Cc3cccc4[nH]ncc34)c(=O)c21 [Compound 77]
38 | > 800 | > 800 | > 800 | ≤ 1000 |  |  |  | Cn1c2nc([S+](C)[O-])sc2c2cnn(Cc3ccnc(N)c3)c(=O)c21 (stereo not drawn) [Compound 78]
39 | < 300 | < 300 | < 300 | ≤ 1000 |  |  |  | Cn1c2nc([S+](C)[O-])sc2c2cnn(Cc3cccc4c3CCN4)c(=O)c21 (stereo not drawn) [Compound 79]
